Earlier results, collected in patent US20250073140A1, “ANTIPERSPIRANT COMPOSITIONS CONTAINING A SYNERGISTIC COMBINATION OF COPPER, ALUMINUM, TIN, ZINC, ZIRCONIUM, AND SILVER SALTS, AND, METHODS OF USING” (priority 2023, published 2025).

Settings: literature report

[Cl][Cu][Cl] [copper chloride]
antiperspirant activity: demonstrated to have antiperspirant activity
